Values joined by “and” are separate entries in the source; they are usually repeats but may differ in a detail not shown here. Equal values may be shown once.
System: human PBMCs
Assay: LPS-induced cytokine and chemokine levels in human PBMC supernatant (Luminex, ELISA)
Type: cell-based
Conditions: for CCl2, % reduction / CXCL1 % reduction / CXCL2 % reduction / MMP9 % reduction / CCl2, Mean / CXCL1, Mean / CXCL2, Mean / MMP9, Mean / CCl2, individual value / CXCL1, individual value / CXCL2, individual value / MMP9, individual value: LPS-stimulated PBMC supernatant; for CCl2, Mean / CXCL1, Mean / CXCL2, Mean / MMP9, Mean: sample size 2; for CCl2, individual value / CXCL1, individual value / CXCL2, individual value / MMP9, individual value: single replicate
[1] = LPS-stimulated human PBMC supernatant, 0.03 µM

C=C[C@]1(C)C[C@@H](OC(=O)CS[C@@H]2CC[C@@H](N)C[C@H]2O)[C@]2(C)[C@H](C)CC[C@]3(CCC(=O)[C@H]32)[C@@H](C)[C@@H]1O [Lefamulin]
CCl2, % reduction (0.03 µM): -3.52%
CXCL1 % reduction (0.03 µM): -11%
CXCL2 % reduction (0.03 µM): -3%
MMP9 % reduction (0.03 µM): -7%
CCl2, Mean (0.03 µM): 1309 pg/mL
CXCL1, Mean (0.03 µM): 6607 pg/mL
CXCL2, Mean (0.03 µM): 5213 pg/mL
MMP9, Mean (0.03 µM): 3113 pg/mL
CCl2, individual value (0.03 µM): 1274 pg/mL and 1344 pg/mL
CXCL1, individual value (0.03 µM): 6599 pg/mL and 6616 pg/mL
CXCL2, individual value (0.03 µM): 5117 pg/mL and 5308 pg/mL
MMP9, individual value (0.03 µM): 3135 pg/mL and 3092 pg/mL
CCl2, % reduction (0.1 µM): -1%
CXCL1 % reduction (0.1 µM): -3%
CXCL2 % reduction (0.1 µM): 3%
MMP9 % reduction (0.1 µM): 6%
CCl2, Mean (0.1 µM): 1279 pg/mL
CXCL1, Mean (0.1 µM): 6126 pg/mL
CXCL2, Mean (0.1 µM): 4904 pg/mL
MMP9, Mean (0.1 µM): 2899 pg/mL
CCl2, individual value (0.1 µM): 1178 pg/mL and 1379 pg/mL
CXCL1, individual value (0.1 µM): 5750 pg/mL and 6502 pg/mL
CXCL2, individual value (0.1 µM): 4854 pg/mL and 4955 pg/mL
MMP9, individual value (0.1 µM): 2852 pg/mL and 2946 pg/mL
CCl2, % reduction (0.3 µM): -8%
CXCL1 % reduction (0.3 µM): -11%
CXCL2 % reduction (0.3 µM): -1.83%
MMP9 % reduction (0.3 µM): -13%
CCl2, Mean (0.3 µM): 1360 pg/mL
CXCL1, Mean (0.3 µM): 6577 pg/mL
CXCL2, Mean (0.3 µM): 5150 pg/mL
MMP9, Mean (0.3 µM): 3213 pg/mL
CCl2, individual value (0.3 µM): 1440 pg/mL and 1281 pg/mL
CXCL1, individual value (0.3 µM): 6950 pg/mL and 6204 pg/mL
CXCL2, individual value (0.3 µM): 5157 pg/mL and 5144 pg/mL
MMP9, individual value (0.3 µM): 3328 pg/mL and 3097 pg/mL
CCl2, % reduction (1 µM): -4.42%
CXCL1 % reduction (1 µM): -4.56%
CXCL2 % reduction (1 µM): 2.67%
MMP9 % reduction (1 µM): -10%
CCl2, Mean (1 µM): 1320 pg/mL
CXCL1, Mean (1 µM): 6222 pg/mL
CXCL2, Mean (1 µM): 4923 pg/mL
MMP9, Mean (1 µM): 3154 pg/mL
CCl2, individual value (1 µM): 1176 pg/mL and 1464 pg/mL
CXCL1, individual value (1 µM): 5695 pg/mL and 6750 pg/mL
CXCL2, individual value (1 µM): 4726 pg/mL and 5120 pg/mL
MMP9, individual value (1 µM): 3230 pg/mL and 3077 pg/mL
CCl2, % reduction (3 µM): -29%
CXCL1 % reduction (3 µM): -12%
CXCL2 % reduction (3 µM): -3.75%
MMP9 % reduction (3 µM): -3%
CCl2, Mean (3 µM): 1626 pg/mL
CXCL1, Mean (3 µM): 6685 pg/mL
CXCL2, Mean (3 µM): 5247 pg/mL
MMP9, Mean (3 µM): 3044 pg/mL
CCl2, individual value (3 µM): 1606 pg/mL and 1647 pg/mL
CXCL1, individual value (3 µM): 6614 pg/mL and 6757 pg/mL
CXCL2, individual value (3 µM): 5389 pg/mL and 5104 pg/mL
MMP9, individual value (3 µM): 3098 pg/mL and 2991 pg/mL
CCl2, % reduction (10 µM): -40%
CXCL1 % reduction (10 µM): -16%
CXCL2 % reduction (10 µM): 2.3%
MMP9 % reduction (10 µM): 13%
CCl2, Mean (10 µM): 1763 pg/mL
CXCL1, Mean (10 µM): 6870 pg/mL
CXCL2, Mean (10 µM): 4942 pg/mL
MMP9, Mean (10 µM): 2781 pg/mL
CCl2, individual value (10 µM): 1714 pg/mL and 1811 pg/mL
CXCL1, individual value (10 µM): 6794 pg/mL and 6946 pg/mL
CXCL2, individual value (10 µM): 4972 pg/mL and 4912 pg/mL
MMP9, individual value (10 µM): 2867 pg/mL and 2696 pg/mL
CCl2, % reduction (30 µM): 8%
CXCL1 % reduction (30 µM): 7%
CXCL2 % reduction (30 µM): 6%
MMP9 % reduction (30 µM): 27%
CCl2, Mean (30 µM): 1163 pg/mL
CXCL1, Mean (30 µM): 5540 pg/mL
CXCL2, Mean (30 µM): 4765 pg/mL
MMP9, Mean (30 µM): 2563 pg/mL
CCl2, individual value (30 µM): 1184 pg/mL and 1143 pg/mL
CXCL1, individual value (30 µM): 5594 pg/mL and 5487 pg/mL
CXCL2, individual value (30 µM): 4928 pg/mL and 4603 pg/mL
MMP9, individual value (30 µM): 2485 pg/mL and 2640 pg/mL
CCl2, % reduction (100 µM): 92%
CXCL1 % reduction (100 µM): 73%
CXCL2 % reduction (100 µM): 2.31%
MMP9 % reduction (100 µM): 11%
CCl2, Mean (100 µM): 141 pg/mL
CXCL1, Mean (100 µM): 1638 pg/mL
CXCL2, Mean (100 µM): 4941 pg/mL
MMP9, Mean (100 µM): 2809 pg/mL
CCl2, individual value (100 µM): 141 pg/mL
CXCL1, individual value (100 µM): 1562 pg/mL and 1715 pg/mL
CXCL2, individual value (100 µM): 4788 pg/mL and 5094 pg/mL
MMP9, individual value (100 µM): 2812 pg/mL and 2806 pg/mL
GM-CSF % reduction [1]: -7%
GM-CSF [pg/mL], Mean [1]: 705 pg/mL
GM-CSF [pg/mL], individual value [1]: 721 pg/mL and 689 pg/mL
IL-1β % reduction [1]: -4.62%
IL-1β [pg/mL], Mean [1]: 13375 pg/mL
IL-1β [pg/mL], individual value [1]: 13502 pg/mL and 13249 pg/mL
IL-6 % reduction [1]: 9%
IL-6 [pg/mL], Mean [1]: 31710 pg/mL
IL-6 [pg/mL], individual value [1]: 32710 pg/mL and 30710 pg/mL
IL-8 % reduction [1]: -7%
IL-8 [pg/mL], Mean [1]: 3113 pg/mL
IL-8 [pg/mL], individual value [1]: 3135 pg/mL and 3092 pg/mL
